The NIST ThermoML archive (doi:10.1021/je400332j)

What was measured:
[1] = 101.33 kPa, Liquid; for viscosity: Concentric cylinders viscometry; for mass density: Vibrating tube method
[2] = xn = mol fraction of the nth substance listed; details: 101 kPa, Liquid; for viscosity: Concentric cylinders viscometry; for mass density: Vibrating tube method

CCn1cc[n+](C)c1.F[B-](F)(F)F [1-ethyl-3-methylimidazolium tetrafluoroborate]
[1]
Details | mass density [kg/m3] | viscosity [mPa·s]
293.15 K | 1283.9 | 45.47
298.15 K | 1280 | 37.46
303.15 K | 1276.2 | 31.29
308.15 K | 1272.4 | 26.45
313.15 K | 1268.6 | 22.61
318.15 K | 1264.9 | 19.51
323.15 K | 1261.2 | 17
328.15 K | 1257.4 | 14.92
333.15 K | 1253.8 | 13.2
338.15 K | 1250.1 | 11.76
343.15 K | 1246.5 | 10.54

CCn1cc[n+](C)c1.F[B-](F)(F)F [1-ethyl-3-methylimidazolium tetrafluoroborate] + CCCCCCn1cc[n+](C)c1.F[B-](F)(F)F
[2], x1 = 1
Details | mass density [kg/m3] | viscosity [mPa·s]
293.15 K | 1283.9 | 45.47
298.15 K | 1280 | 37.46
303.15 K | 1276.2 | 31.29
308.15 K | 1272.4 | 26.45
313.15 K | 1268.6 | 22.61
318.15 K | 1264.9 | 19.51
323.15 K | 1261.2 | 17
328.15 K | 1257.4 | 14.92
333.15 K | 1253.8 | 13.2
338.15 K | 1250.1 | 11.76
343.15 K | 1246.5 | 10.54

CCn1cc[n+](C)c1.F[B-](F)(F)F [1-ethyl-3-methylimidazolium tetrafluoroborate] + CCCn1cc[n+](C)c1.F[B-](F)(F)F
[2], x1 = 1
Details | mass density [kg/m3] | viscosity [mPa·s]
293.15 K | 1283.9 | 45.47
298.15 K | 1280 | 37.46
303.15 K | 1276.2 | 31.29
308.15 K | 1272.4 | 26.45
313.15 K | 1268.6 | 22.61
318.15 K | 1264.9 | 19.51
323.15 K | 1261.2 | 17
328.15 K | 1257.4 | 14.92
333.15 K | 1253.8 | 13.2
338.15 K | 1250.1 | 11.76
343.15 K | 1246.5 | 10.54

CCCCCCn1cc[n+](C)c1.F[B-](F)(F)F [1-hexyl-3-methylimidazolium tetrafluoroborate]
[1]
Details | mass density [kg/m3] | viscosity [mPa·s]
293.15 K | 1147.5 | 280.4
298.15 K | 1144.1 | 206.3
303.15 K | 1140.6 | 154.9
308.15 K | 1137.2 | 118.7
313.15 K | 1133.7 | 92.56
318.15 K | 1130.3 | 73.37
323.15 K | 1127 | 59.03
328.15 K | 1123.6 | 48.16
333.15 K | 1120.2 | 39.71
338.15 K | 1116.8 | 33.21
343.15 K | 1113.4 | 28.03

CCCCCCn1cc[n+](C)c1.F[B-](F)(F)F [1-hexyl-3-methylimidazolium tetrafluoroborate] + CCCn1cc[n+](C)c1.F[B-](F)(F)F
[2], x2 = 0
Details | mass density [kg/m3] | viscosity [mPa·s]
293.15 K | 1147.5 | 280.4
298.15 K | 1144.1 | 206.3
303.15 K | 1140.6 | 154.9
308.15 K | 1137.2 | 118.7
313.15 K | 1133.7 | 92.56
318.15 K | 1130.3 | 73.37
323.15 K | 1127 | 59.03
328.15 K | 1123.6 | 48.16
333.15 K | 1120.2 | 39.71
338.15 K | 1116.8 | 33.21
343.15 K | 1113.4 | 28.03

CCCn1cc[n+](C)c1.F[B-](F)(F)F [1-propyl-3-methylimidazolium tetrafluoroborate]
[1]
Details | mass density [kg/m3] | viscosity [mPa·s]
293.15 K | 1239.3 | 95.44
298.15 K | 1235.7 | 74.04
303.15 K | 1232 | 58.59
308.15 K | 1228.3 | 47.16
313.15 K | 1224.7 | 38.56
318.15 K | 1221 | 31.98
323.15 K | 1217.4 | 26.83
328.15 K | 1213.8 | 22.77
333.15 K | 1210.2 | 19.54
338.15 K | 1206.6 | 16.92
343.15 K | 1203 | 14.77
